Experimental data from patent US11096951B2, “Prebiotic composition containing butyryl-fructooligosaccharides” (priority 2018, dated 2021).

Columns and labels:
[1] = tested on: Bac. Thetaiotaomicron; experiment: Analysis of bacterial culture supernatant (HPLC organic acids); type: cell-based; conditions: substance as carbon source
[2] = tested on: all strains; experiment: Analysis of bacterial culture supernatant (HPLC organic acids), all strains; type: cell-based; conditions: medium containing the substance
[3] = tested on: Bac. Fragilis; experiment: Analysis of bacterial culture supernatant (HPLC organic acids); type: cell-based; conditions: substance as carbon source
[4] = tested on: Staphylococcus aureus; experiment: Microbial growth curve (OD600); type: cell-based; conditions: 1% (w/v)
Method: (§1) All strains were obtained from the official institute of strain distribution or by the food microbiology laboratory of Seoul National University. Eight bifidobacteria strains, four Lactobacillus (lactic acid bacteria) strains, lactis KCTC 2013 (Lactococcus lactis subsp. lactis KCTC 2013), and Streptococcus thermophilus KCTC 3779 were sub-cultured in MRS supplemented with 0.05% (w/v) L-cysteine.HCl (de-Mann-Rogosa-Sharpe broth; Difco, Detroit, USA) at 37° C., twice every 18 hours prior to use. Other strains were sub-cultured in BHIB (brain-heart infusion broth; Difco) under the same culture conditions as above prior to use.
(§2) A basal medium used for the bacterial growth test was sugar-free BHIB (MB Cell, Los Angeles, Calif., USA). […]
(§3) In order to remove glucose or other carbon source present in a culture medium of activated bacteria, cultured bacteria were centrifuged (15,000×g, 5 min), the supernatant was discarded and the precipitated bacteria were washed with PBS (pH 7.4) twice. […] Bacterial proliferation was checked by measuring optical density (OD) of the culture solution, absorbance at 600 nm was measured with a microplate reader (BioRad, Hercules, Calif., USA) and a growth curve was made. Bacterial growth was analyzed by comparing maximum OD600 values at a substance concentration of 1% (w/v). […]

[5] = tested on: Caco-2 cells; experiment: Change in growth of Caco-2 cells depending on medium composition (trypan blue cell count); conditions: 4 days
Method: To avoid main use of glucose as an energy source for cell growth in a standard culture medium of Caco-2 cells containing a high concentration of glucose (4.5 g/L), cellular growth was compared in the presence of a high concentration of glucose (4.5 g/L) and pyruvate using a glucose-free DMEM (Dulbecco's modified Eagle's medium; Gibco BRL, Grand Island, N.Y., USA).
10% (w/v) solutions of NaB, FOS and B-FOS in PBS were prepared and filtered through a 0.2 μm membrane filter. NaB, FOS and B-FOS were each prepared at a concentration of 0.005 to 0.06% (w/v) in a DMEM medium containing high concentrations of glucose (4.5 g/L) and pyruvate (Glu+Pyr+) and a DMEM medium not containing the same (Glu−Pyr−), and were then used for the test.
5×10^5 cells were seeded in a dose of 1.5 mL in a 25 cm^2 flask (SPL Life Science, Pocheon, South Korea) and cultured for 3 days in 37° C., 5% CO2 cell incubator until 50% confluence was obtained. Then, the medium was replaced with a medium supplemented with 0.005 to 0.06% (w/v) of NaB, FOS and B-FOS and then cultured under the same conditions for 4 days. The culture supernatant was harvested for testing and adsorbed cells were washed with PBS twice, were treated with trypsin/EDTA, and were isolated from the flask. […] The control group was a medium supplemented with PBS and a mean of values obtained by repeating tests three times is shown.

[6] = Cell viability by MTT analysis; type: cell-based; conditions: human, Caco-2 cells, percentage of control
Method: MTT analysis was conducted to confirm cytotoxicity derived from B-FOS. 100 μl of Caco-2 cells were seeded at a density of 2,000 cells/well onto a 96-well plate and cultured at 37° C. in a 5% CO2 cell incubator for 48 hours. […] After completion of culture, 20 μl of a 5 mg/mL MTT solution was added to each well, reaction was conducted for 4 hours again and the supernatant was removed. The formed crystal was dissolved in 100 μl of dimethyl sulfoxide (DMSO) and an absorbance at 750 nm was measured using a microplate spectrophotometer. Cell viability was represented as a percentage with respect to the control group with no treatment and a mean of values by repeating the test four times was indicated (FIG. 16).

[7] = tested on: B. catenulatum; experiment: Analysis of bacterial culture supernatant (HPLC organic acids); type: cell-based, Bifidobacterium catenulatum; conditions: substance as carbon source
[8] = tested on: all bacteria used for tests; experiment: Microbial growth curve (OD600), all bacteria used for tests; type: cell-based; conditions: compared to positive control (glucose)
Method: as §1, §2, §3

[9] = tested on: L. casei; experiment: Analysis of bacterial culture supernatant (HPLC organic acids); type: cell-based, Lactobacillus casei; conditions: substance as carbon source
[10] = tested on: E. Faecalis; experiment: Analysis of bacterial culture supernatant (TLC, HPLC organic acids); type: cell-based, Enterococcus faecalis; conditions: substance as carbon source
[11] = tested on: B. longum RD47; experiment: Analysis of bacterial culture supernatant (HPLC organic acids); type: cell-based, Bifidobacterium longum; conditions: substance as carbon source
[12] = tested on: E. coli; experiment: as above; type: cell-based, Escherichia coli; conditions: substance as carbon source
[13] = tested on: Clostridium butyricum; type: cell-based; conditions: 1% (w/v)
[14] = tested on: B. longum BORI; experiment: Analysis of bacterial culture supernatant (TLC, HPLC organic acids); type: cell-based, Bifidobacterium longum; conditions: substance as carbon source
[15] = tested on: B. bifidum BGN4; experiment: Analysis of bacterial culture supernatant (HPLC organic acids); type: cell-based, Bifidobacterium bifidum; conditions: substance as carbon source

With `CCCC(=O)[O-].[Na+]` [NaB, Sodium Butyrate] as the compound, how does the Acetic acid [1] read?
The Acetic acid was “+ (0.05% (v/v) or less)”.

What about the Butyric acid [1] of the same compound?
Its Butyric acid is “+++ (no more than 0.25% (v/v))”.

And the Lactic acid [1]?
Its Lactic acid is “−”.

What about the “butyric acid in culture solutions (HPLC)” value [2] of the same compound?
The value was “detected”.

What about the Acetic acid [3] of the same compound?
The Acetic acid was “+ (0.05% (v/v) or less)”.

And the Butyric acid [3]?
The Butyric acid was “+++ (no more than 0.25% (v/v))”.

What about the Lactic acid [3] of the same compound?
The Lactic acid was “+ (0.05% (v/v) or less)”.

And the growth of bacteria ([4]; vs negative control)?
Its growth of bacteria is “significantly inhibited”.

What about the “maximum OD600” value ([4]; negative control OD600=0.36) of the same compound?
Its value is 0.25.

What about the “decrease in the number of cells as compared to the control group” value (shortened to “decrease in the number of cells”) ([5]; Glu+Pyr+ medium, 0.005% (w/v)) of the same compound?
Its value is “about 30%”.

And the “decrease in the number of cells” value ([5]; Glu+Pyr+ medium, 0.04% (w/v))?
The value was roughly 50%.

What about the “decrease in the number of cells” value ([5]; Glu+Pyr+ medium, 0.06% (w/v)) of the same compound?
Its value is roughly 65%.

And the “number of cells vs control group” value ([5]; Glu−Pyr− medium, 0.005% (w/v))?
Its value is “increased”.

What about the “number of cells vs control group” value ([5]; Glu−Pyr− medium, 0.02% (w/v)) of the same compound?
Its value is “increased”.

What about the “number of cells vs control group” value ([5]; Glu−Pyr− medium, 0.04% (w/v)) of the same compound?
The value was “no significant difference”.

And the “decrease in the number of cells” value ([5]; Glu−Pyr− medium, 0.06% (w/v))?
Its value is 35%.

And the viability at 48 h, 0.1 % (w/v) ([6]; after 48 hours)?
The viability at 48 h, 0.1 % (w/v) was 81 ± 15%.

What about the viability at 72 h, 0.1 % (w/v) ([6]; after 72 hours) of the same compound?
Its viability at 72 h, 0.1 % (w/v) is 45 ± 6.9%.

What about the Acetic acid [7] of the same compound?
Its Acetic acid is “+ (0.05% (v/v) or less)”.

What about the Butyric acid [7] of the same compound?
The Butyric acid was “+++ (no more than 0.25% (v/v))”.

And the Lactic acid [7]?
Its Lactic acid is “++ (0.05% (v/v) − 0.25% (v/v))”.

What about the “growth / use by bacteria used for tests” value [8] of the same compound?
Its value is “could not be grown well”.

And the Acetic acid [9]?
The Acetic acid was “+ (0.05% (v/v) or less)”.

And the Butyric acid [9]?
The Butyric acid was “+++ (no more than 0.25% (v/v))”.

What about the Lactic acid [9] of the same compound?
The Lactic acid was “+ (0.05% (v/v) or less)”.

And the Acetic acid [10]?
Its Acetic acid is “+ (0.05% (v/v) or less)”.

And the Butyric acid [10]?
Its Butyric acid is “+++ (no more than 0.25% (v/v))”.

What about the Lactic acid [10] of the same compound?
Its Lactic acid is “+ (0.05% (v/v) or less)”.

What about the Acetic acid [11] of the same compound?
The Acetic acid was “+ (0.05% (v/v) or less)”.

What about the Butyric acid [11] of the same compound?
Its Butyric acid is “+++ (no more than 0.25% (v/v))”.

And the Lactic acid [11]?
The Lactic acid was “+ (0.05% (v/v) or less)”.

And the Acetic acid [12]?
The Acetic acid was “+ (0.05% (v/v) or less)”.

What about the Butyric acid [12] of the same compound?
Its Butyric acid is “+++ (no more than 0.25% (v/v))”.

What about the Lactic acid [12] of the same compound?
Its Lactic acid is “−”.

And the growth of bacteria ([13]; vs negative control)?
The growth of bacteria was “significantly inhibited”.

What about the “maximum OD600” value ([13]; negative control OD600=0.49) of the same compound?
Its value is 0.42.

And the Acetic acid [14]?
Its Acetic acid is “+ (0.05% (v/v) or less)”.

And the Butyric acid [14]?
Its Butyric acid is “+++ (no more than 0.25% (v/v))”.

What about the Lactic acid [14] of the same compound?
The Lactic acid was “+ (0.05% (v/v) or less)”.

What about the Acetic acid [15] of the same compound?
Its Acetic acid is “+ (0.05% (v/v) or less)”.

What about the Butyric acid [15] of the same compound?
Its Butyric acid is “+++ (no more than 0.25% (v/v))”.

And the Lactic acid [15]?
Its Lactic acid is “+ (0.05% (v/v) or less)”.
